Measured values: PubChem BioAssay (NCI)
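In this assay, cells in 96-well plates receive the compound at five concentrations for 48 hours. Endpoints are linearly interpolated between the surrounding concentrations. The concentration for full growth arrest is given as TGI.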

Columns and labels:
Test in all cases: inhibition of tumour cell growth, NCI panel, 48 h
[1] = test system: A498 renal
[2] = test system: BT-549 breast
[3] = test system: COLO 205 colon
[4] = test system: HCT-116 colon
[5] = test system: HL-60(TB) leukemia
[6] = test system: MALME-3M melanoma
[7] = test system: MDA-N
[8] = test system: SK-MEL-28 melanoma
[9] = test system: TK-10 renal
[10] = test system: UO-31 renal

SMILES	TGI [1]	TGI [2]	TGI [3]	TGI [4]	TGI [5]	TGI [6]	TGI [7]	TGI [8]	TGI [9]	TGI [10]
CC(C)(CN1CCCCC1)C(/C=C/c1ccccc1)=N\NC(=O)N/N=C(/C=C/c1ccccc1)C(C)(C)CN1CCCCC1	2.95 µM	3.23 µM	2.81 µM	2.93 µM	2.86 µM	3.7 µM	3.01 µM	3.07 µM	3.36 µM	2.37 µM
CC1=NN2C(=N)/C(=C/c3ccccc3)C(=O)N=C2S1	> 100 µM	> 100 µM	> 100 µM	> 100 µM	> 100 µM	> 100 µM	> 100 µM	> 100 µM	> 100 µM	> 100 µM
Cc1c(C#N)c(=N)oc2ccccc12	> 100 µM	> 100 µM	> 100 µM	> 100 µM	> 100 µM	> 100 µM	> 100 µM	> 100 µM	> 100 µM	> 100 µM
CC1CN=C(c2ccc(CN3CCC(C4CCN(Cc5ccc(C6=NCC(C)N6)cc5)CC4)CC3)cc2)N1 (stereo not given)	80.6 µM	> 100 µM	41.3 µM	34 µM	> 100 µM	63 µM	47.3 µM	> 100 µM	57.5 µM	58.4 µM
C[C@]12CC[C@H]3[C@@H](CCC4=C(Br)C(=O)C=C[C@@]43O)[C@@H]1CCC2=O	> 100 µM	81.1 µM	> 100 µM	80.1 µM	81.6 µM	> 100 µM	> 100 µM	> 100 µM	94.2 µM	> 100 µM
Cc1nc(Nc2nc3ccccc3[nH]2)nc(Cl)c1CCCl	> 100 µM	> 100 µM	> 100 µM	> 100 µM	> 100 µM	> 100 µM	> 100 µM	> 100 µM	> 100 µM	> 100 µM
C/C(=N/NC(=S)N1CCN(C(=S)N/N=C(/C)c2ccccn2)CC1)c1ccccn1	> 58.6 µM	> 100 µM	> 100 µM	> 100 µM	1.98 µM	> 100 µM	> 100 µM	> 100 µM	> 100 µM	> 76.7 µM
COc1cc2c(cc1O)CCN(C)[C@H]2Cc1ccc(Oc2c(O)c(OC)cc3c2C[C@H]2c4c(c(OC)c(OC)c(OC)c4-3)CCN2C)cc1	12.7 µM	11.8 µM	12.7 µM	7.98 µM	10.6 µM	13.6 µM	9.95 µM	11.7 µM	11.3 µM	9.77 µM
O=C1C(Cl)=C(c2ccc([N+](=O)[O-])cc2)C(=O)c2c(O)cccc21	12.5 µM	4.72 µM	3.66 µM	3.55 µM	> 100 µM	4.49 µM	6.53 µM	4.16 µM	10.7 µM	3.84 µM
CCOC(=O)c1c(N)sc2c1C(C(=O)OCC)CCC2 (stereo not given)	> 100 µM	> 100 µM	> 100 µM	> 100 µM	> 100 µM	> 100 µM	> 100 µM	> 100 µM	> 100 µM	> 100 µM
COc1cc(C)cc2c(-c3c(O)cc(O)c4c3C[C@H](C)N[C@H]4C)cc(-c3cc(-c4c(O)cc(O)c5c4C[C@H](C)N[C@H]5C)c4cc(C)cc(OC)c4c3O)c(O)c12	> 100 µM	> 100 µM	> 100 µM	> 100 µM	> 100 µM	> 100 µM	> 100 µM	> 100 µM	> 100 µM	> 100 µM
O=C(O)CCSC1=NCCN1	> 100 µM	> 100 µM	> 100 µM	> 100 µM	> 100 µM	> 100 µM	> 100 µM	> 100 µM	> 100 µM	> 100 µM
COc1ccccc1NC(=S)N/N=C/c1ccccn1	5.04 µM	77 µM	> 16 µM	0.639 µM	0.693 µM	> 24.3 µM	> 46.4 µM	> 46.4 µM	> 46.4 µM	24.4 µM
O=C(O)COc1cc(-c2ccccc2)nc2ccccc12	> 100 µM	> 100 µM	> 100 µM	> 100 µM	> 100 µM	> 100 µM	85.7 µM	> 100 µM	> 100 µM	> 100 µM
C=CCc1ccccc1C1CC2(C(=O)OC)OC1C(C(=O)OC)=C2C(=O)OC (stereo not given)	> 10 µM	> 10 µM	> 10 µM	> 10 µM	> 10 µM	> 10 µM	> 10 µM	> 10 µM	> 10 µM	> 10 µM
Cn1ccc2c(c1=O)C(=O)OC2(C)C	> 100 µM	> 100 µM	> 100 µM	> 100 µM	> 100 µM	> 100 µM	> 100 µM	> 100 µM	> 100 µM	> 100 µM
CCN1CCCn2c(=O)[nH]c3cc(Br)cc1c32	> 100 µM	> 100 µM	> 100 µM	> 100 µM	> 100 µM	> 100 µM	> 100 µM	> 100 µM	> 100 µM	> 100 µM
CCN(CC)C1Oc2cc3c(cc2C(c2cc(OC)c(OC)c(OC)c2)C1C)OCO3 (stereo not given)	6.65 µM	> 58.4 µM	4.8 µM	13.4 µM	0.932 µM	> 64 µM	0.456 µM	34.3 µM	> 72.1 µM	> 46.7 µM
C=CC(OC(C)=O)c1ccc(OC(C)=O)cc1 (stereo not given)	25.3 µM	23.9 µM	12.9 µM	19.4 µM	18.6 µM	11.2 µM	10.9 µM	28.6 µM	4.99 µM	4.25 µM
COc1cc2oc(-c3ccc4c(c3)OCO4)c(OC)c(=O)c2c(O)c1OC	> 50 µM	> 50 µM	> 50 µM	> 50 µM	> 50 µM	> 50 µM	> 50 µM	> 50 µM	> 50 µM	> 50 µM
C=CCOC1(CC=C)C(=O)OC2C(O)COC21O (stereo not given)	> 100 µM	> 100 µM	> 100 µM	> 100 µM	> 100 µM	> 100 µM	> 100 µM	> 100 µM	> 100 µM	> 100 µM
CNC(=O)N(CCC#N)CCCN(C(=O)N(C)C)c1ccccc1	> 100 µM	> 100 µM	> 100 µM	> 100 µM	> 100 µM	> 100 µM	> 100 µM	> 100 µM	> 100 µM	> 100 µM
COC(=O)[C@](C)(Cc1ccccc1)NC(=O)[C@@H](C)N1[C@@H](c2ccccc2)COC1(C)C	> 100 µM	> 100 µM	52.2 µM	> 100 µM	> 100 µM	> 100 µM	> 100 µM	> 100 µM	> 100 µM	> 100 µM
CC(C)(Cc1ccccc1)N1C(=O)N1C(C)(C)Cc1ccccc1	> 100 µM	> 100 µM	77.8 µM	> 100 µM	41.7 µM	98.4 µM	> 100 µM	> 100 µM	> 100 µM	> 100 µM
COC(=O)/C=c1/c2ccccc2n2c1c1ccccc1[n+]2C	14.6 µM	14.7 µM	2.51 µM	10.1 µM	8.44 µM	6.74 µM	11.1 µM	19.9 µM	9.93 µM	20.4 µM
CC1CN=C(c2ccc(-c3nc(-c4ccc(C5=NCC(C)N5)cc4)nc(N(C)C)n3)cc2)N1 (stereo not given)	6.7 µM	13.7 µM	2.38 µM	3.16 µM	6.88 µM	8.87 µM	4.03 µM	8.12 µM	11.5 µM	19.9 µM
COc1ccc(OC)c(C[P+](c2ccccc2)(c2ccccc2)c2ccccc2)c1	23.5 µM	29.1 µM	2.76 µM	14.4 µM	3.29 µM	23.3 µM	29.8 µM	18.8 µM	> 92.6 µM	79.4 µM
